ChEMBL document CHEMBL5724914, “Linking interpersonal differences in gut microbiota composition and drug biotransformation activity” (2024)

Experiments:
[1] = (§1) The drug is tested on Z-008 corresponding to metagenome with ENA study accession number: PRJEB37062 and ENA sample accession number: ERS12561808 for biotransformation under anaerobic condition. The drug concentrations were measured over 9 timepoints collected between 0 and 24 hours of incubation by liquid-chromatography-coupled mass spectrometry (LC–MS); settings: 2 µM
[2] = human gut metagenome, 24 h, 2 µM
[3] = (§2) The drug is tested on WLS-039 corresponding to human gut metagenome with ENA study accession number: PRJEB37062 and ENA sample accession number: ERS12561746 for biotransformation under anaerobic condition. The drug concentrations were measured over 9 timepoints collected between 0 and 24 hours of incubation by liquid-chromatography-coupled mass spectrometry (LC–MS); settings: 2 µM
[4] = as §2, with “WLS-007” for “WLS-039”, “ERS12561742” for “ERS12561746”; settings: 2 µM
[5] = as §2, with “WLS-090” for “WLS-039”, “ERS12561753” for “ERS12561746”; settings: 2 µM
[6] = human gut metagenome, 24 h, 2 µM; remark: listed apart in the source
[7] = as §1, with “Z-010” for “Z-008”, “ERS12561810” for “ERS12561808”; settings: 2 µM
[8] = as §2, with “WLS-027” for “WLS-039”, “ERS12561744” for “ERS12561746”; settings: 2 µM
[9] = as §2, with “WLS-310” for “WLS-039”, “ERS12561785” for “ERS12561746”; settings: 2 µM
[10] = as §2, with “WLS-010” for “WLS-039”, “ERS12561743” for “ERS12561746”; settings: 2 µM
[11] = human gut metagenome, 24 h, 2 µM; remark: listed apart in the source
[12] = as §2, with “Z-028” for “WLS-039”, “mouse” for “human”, “ERS12561827” for “ERS12561746”; settings: 2 µM
[13] = human gut metagenome, 24 h, 2 µM; remark: listed apart in the source
[14] = as §2, with “WLS-006” for “WLS-039”, “ERS12561741” for “ERS12561746”; settings: 2 µM
[15] = human gut metagenome, 24 h, 2 µM; remark: listed apart in the source
[16] = human gut metagenome, 24 h, 2 µM; remark: listed apart in the source
[17] = as §2, with “WLS-073” for “WLS-039”, “ERS12561749” for “ERS12561746”; settings: 2 µM
[18] = human gut metagenome, 24 h, 2 µM; remark: listed apart in the source
[19] = as §2, with “Z-003” for “WLS-039”, “pig” for “human”, “ERS12561803” for “ERS12561746”; settings: 2 µM
[20] = as §2, with “WLS-240” for “WLS-039”, “ERS12561773” for “ERS12561746”; settings: 2 µM
[21] = as §2, with “WLS-082” for “WLS-039”, “ERS12561751” for “ERS12561746”; settings: 2 µM
[22] = as §1, with “Z-021” for “Z-008”, “ERS12561820” for “ERS12561808”; settings: 2 µM
[23] = as §2, with “WLS-220” for “WLS-039”, “ERS12561769” for “ERS12561746”; settings: 2 µM
[24] = as §2, with “Z-014” for “WLS-039”, “rat” for “human”, “ERS12561814” for “ERS12561746”; settings: 2 µM
[25] = as §2, with “Z-029” for “WLS-039”, “rat” for “human”, “ERS12561828” for “ERS12561746”; settings: 2 µM
[26] = as §2, with “WLS-077” for “WLS-039”, “ERS12561750” for “ERS12561746”; settings: 2 µM
[27] = human gut metagenome, 24 h, 2 µM; remark: listed apart in the source
[28] = human gut metagenome, 24 h, 2 µM; remark: listed apart in the source
[29] = as §2, with “WLS-052” for “WLS-039”, “ERS12561747” for “ERS12561746”; settings: 2 µM
[30] = as §1, with “Z-027” for “Z-008”, “ERS12561826” for “ERS12561808”; settings: 2 µM
[31] = human gut metagenome, 24 h, 2 µM; remark: listed apart in the source
[32] = human gut metagenome, 24 h, 2 µM; remark: listed apart in the source
[33] = as §2, with “Z-020” for “WLS-039”, “rabbit” for “human”, “ERS12561819” for “ERS12561746”; settings: 2 µM
[34] = as §1, with “Z-023” for “Z-008”, “ERS12561822” for “ERS12561808”; settings: 2 µM
[35] = as §2, with “Z-022” for “WLS-039”, “mouse” for “human”, “ERS12561821” for “ERS12561746”; settings: 2 µM
[36] = human gut metagenome, 24 h, 2 µM; remark: listed apart in the source
[37] = human gut metagenome, 24 h, 2 µM; remark: listed apart in the source
[38] = as §2, with “Z-024” for “WLS-039”, “pig” for “human”, “ERS12561823” for “ERS12561746”; settings: 2 µM
[39] = as §2, with “Z-006” for “WLS-039”, “mouse” for “human”, “ERS12561806” for “ERS12561746”; settings: 2 µM
[40] = as §2, with “Z-025” for “WLS-039”, “rabbit” for “human”, “ERS12561824” for “ERS12561746”; settings: 2 µM
[41] = human gut metagenome, 24 h, 2 µM; remark: listed apart in the source
[42] = human gut metagenome, 24 h, 2 µM; remark: listed apart in the source
[43] = as §2, with “Z-016” for “WLS-039”, “mouse” for “human”, “ERS12561815” for “ERS12561746”; settings: 2 µM
[44] = as §1, with “Z-026” for “Z-008”, “ERS12561825” for “ERS12561808”; settings: 2 µM
[45] = as §2, with “WLS-086” for “WLS-039”, “ERS12561752” for “ERS12561746”; settings: 2 µM
[46] = as §2, with “Z-030” for “WLS-039”, “mouse” for “human”, “ERS12561829” for “ERS12561746”; settings: 2 µM
[47] = human gut metagenome, 24 h, 2 µM; remark: listed apart in the source
[48] = as §2, with “WLS-069” for “WLS-039”, “ERS12561748” for “ERS12561746”; settings: 2 µM
[49] = as §2, with “WLS-038” for “WLS-039”, “ERS12561745” for “ERS12561746”; settings: 2 µM
Note: call rule not given here.

Bacterial Biotransformation [1]: Compound metabolized | Bacterial Biotransformation [2]: Compound metabolized | Bacterial Biotransformation [3]: Compound metabolized | Bacterial Biotransformation [4]: Compound metabolized | Bacterial Biotransformation [5]: Compound metabolized | Bacterial Biotransformation [6]: Compound metabolized | Bacterial Biotransformation [7]: Compound metabolized | Bacterial Biotransformation [8]: Compound metabolized | Bacterial Biotransformation [9]: Compound metabolized | Bacterial Biotransformation [10]: Compound metabolized | Bacterial Biotransformation [11]: Compound metabolized | Bacterial Biotransformation [12]: Compound metabolized | Bacterial Biotransformation [13]: Compound metabolized | Bacterial Biotransformation [14]: Compound metabolized | Bacterial Biotransformation [15]: Compound metabolized | Bacterial Biotransformation [16]: Compound NOT metabolized | Bacterial Biotransformation [17]: Compound metabolized | Bacterial Biotransformation [18]: Compound metabolized | Bacterial Biotransformation [19]: Compound metabolized | Bacterial Biotransformation [20]: Compound metabolized | Bacterial Biotransformation [21]: Compound metabolized | Bacterial Biotransformation [22]: Compound metabolized | Bacterial Biotransformation [23]: Compound metabolized | Bacterial Biotransformation [24]: Compound NOT metabolized | Bacterial Biotransformation [25]: Compound NOT metabolized | Bacterial Biotransformation [26]: Compound metabolized | Bacterial Biotransformation [27]: Compound metabolized | Bacterial Biotransformation [28]: Compound metabolized | Bacterial Biotransformation [29]: Compound metabolized | Bacterial Biotransformation [30]: Compound metabolized | Bacterial Biotransformation [31]: Compound metabolized | Bacterial Biotransformation [32]: Compound metabolized | Bacterial Biotransformation [33]: Compound NOT metabolized | Bacterial Biotransformation [34]: Compound metabolized | Bacterial Biotransformation [35]: Compound metabolized | Bacterial Biotransformation [36]: Compound metabolized | Bacterial Biotransformation [37]: Compound NOT metabolized | Bacterial Biotransformation [38]: Compound metabolized | Bacterial Biotransformation [39]: Compound metabolized | Bacterial Biotransformation [40]: Compound metabolized | Bacterial Biotransformation [41]: Compound metabolized | Bacterial Biotransformation [42]: Compound metabolized | Bacterial Biotransformation [43]: Compound NOT metabolized | Bacterial Biotransformation [44]: Compound metabolized | Bacterial Biotransformation [45]: Compound metabolized | Bacterial Biotransformation [46]: Compound metabolized | Bacterial Biotransformation [47]: Compound metabolized | Bacterial Biotransformation [48]: Compound metabolized | Bacterial Biotransformation [49]: Compound metabolized
Structure (SMILES): C#C[C@]1(O)CC[C@H]2[C@@H]3CCC4=Cc5oncc5C[C@]4(C)[C@H]3CC[C@@]21C [DANAZOL]
